Experimental data reported in US20100249018A1, “COMPOSITION AND METHOD FOR PREVENTING AND TREATING IMMUNE-RELATED DISORDER” (priority 2007, published 2010).
Square brackets hold non-standard residues; d marks the D form. Ends that are not written are not given here. * marks the point of attachment. Boc = CC(C)(C)OC(=O)*; For = O=C*

What was measured:
CLP mice = experiment: Survival in CLP (cecal ligation and puncture) sepsis mouse model; format: in vivo; details: for therapeutic effect of FPR ligands and scrambled peptide / therapeutic effect of WKYMVm analogs on experimental sepsis: 4 mg/kg subcutaneous four times at 2, 14, 26, 38 h post-CLP; for therapeutic effect of FPR ligands and scrambled peptide: FIG. 1g; for reversal of the therapeutic effects of WKYMVm by antagonist pre-treatment: antagonist 4 mg/kg subcutaneous 2 h before CLP and 2 h before each WKYMVm (4 mg/kg) treatment, FIG. 1d; for therapeutic effect of WKYMVm analogs on experimental sepsis: ICR mice, survival up to 10 days, FIG. 1h
Experimental: Male WT ICR mice and IL-12R 2-, IFN-γ-deficient, and WT C57BL/6 mice (kindly donated from Y. C. Sung, POSTECH, Republic of Korea) were used for experimental sepsis model, as previously described (Yan, J. J., Nat. Med. 10:161-167, 2004). All experiments involving animals adhered to the guidelines and received the approval of the Institutional Review Committee for Animal Care and Use at Dong-A University. For CLP, mice were anesthetized with pentothal sodium (50 mg/kg, intraperitoneal) and a small abdominal midline incision was made to expose the cecum. The cecum was then ligated below the ileocecal valve, punctured twice through both surfaces (or once for the measurement of cytokine production) using a 22-gauge needle and the abdomen was closed. Sham CLP mice were subjected to the same procedure, but without ligation and puncture of the cecum. Survival was monitored once daily for 10 days.
To investigate whether WKYMVm has a therapeutic effect on experimental sepsis, CLP was performed on albino ICR (Institute of Cancer Research) mice, and their survival was monitored for up to 10 days. […] Various doses of WKYMVm were injected subcutaneously four times into CLP mice at 2, 14, 26, and 38 h post-CLP.
To examine the effect of WKYMVm treatment, mice were injected subcutaneously with various doses of the peptide or with PBS as a negative control beginning 2 h after CLP. […] Various doses of WKYMVm were injected subcutaneously four times into CLP mice at […] post-CLP.
CLP mice were given zero, one, two, three, four, or five injections of WKYMVm (4 mg/kg, subcutaneous).
To evaluate the roles of FPR1 and FPR2, an FPR1 antagonist [N-t-butoxycarbonyl-Phe-Leu-Phe-Leu-Phe (Boc-PLPLP) (SEQ ID NO:12)] (La, M., et al., FASEB J. 15:2247-2256) and an FPR2 antagonist [Trp-Arg-Trp-Trp-Trp-Trp; WRWWWW (WRW^4) (SEQ ID NO:13)] (Bae, Y. S et al., J. Immunol. 173:607-614.) were administered prior to WKYMVm treatment in CLP mice. […] Boc-PLPLP (4 mg/kg), WRW^4 (4 mg/kg), or Boc-PLPLP (4 mg/kg)+WRW^4 (4 mg/kg) was injected subcutaneously 2 h before CLP. After CLP, Boc-PLPLP (4 mg/kg) or WRW^4 (4 mg/kg) was injected subcutaneously four times at 12-h intervals 2 h before WKYMVm treatment (4 mg/kg, subcutaneous).
Statistical analysis. Survival data were analyzed using the log-rank test. All other data were evaluated using ANOVA. The Bonferroni test was used for post hoc comparisons and statistical significance was set a priori at P<0.05.
FPR-family agonists (WKYMVm (SEQ ID NO:1), WKYMVM(SEQ ID NO:14), fMLF(SEQ ID NO:15) and MMK-1 (SEQ ID NO:16)) or scrambled peptide (VWMYmK: SEQ ID NO: 17) (4 mg/kg, respectively) were injected subcutaneously four times to CLP mice at 2, 14, 26, and 38 h post-CLP.
To investigate whether the analogs of WKYMVm(SEQ ID NO:1), WRYMVm(SEQ ID NO: 2), WKWMVm(SEQ ID NO: 3), WKRMVm(SEQ ID NO: 4), WKFMVm(SEQ ID NO: 5), WHYMVm(SEQ ID NO: 6), WKYMYm(SEQ ID NO: 7), WKYMFm(SEQ ID NO: 8), WKYMWm(SEQ ID NO: 9), WKYMVV(SEQ ID NO: 10) and WKEMVm(SEQ ID NO: 11) have therapeutic effects on experimental sepsis, CLP was performed on albino ICR (Institute of Cancer Research) mice, and their survival was monitored for up to 10 days. […] 4 mg/kg of WKYMVm or each analog of WKYMVm was injected subcutaneously four times into CLP mice at 2, 14, 26, and 38 h post-CLP (FIG. 1h).
To investigate the role of Th1 cytokines (IL-12 and IFN-γ) on WKYMVm-induced survival effect after sepsis, the CLP model was applied to IL-12Rβ2- and IFN-γ-deficient mice (C57BL/6 background). […] WT C57BL/6 or IL-12Rβ2-deficient mice were subcutaneously injected with WKYMVm (4 mg/kg) or PBS four times to CLP mice 2, 14, 26, and 38 h post-CLP. In FIG. 5d, WT C57BL/6 or IFN-γ-deficient mice were subcutaneously injected with WKYMVm (4 mg/kg) or PBS four times to CLP mice 2, 14, 26, and 38 h post-CLP. Data are expressed as the mean±standard error. *P<0.05; **P<0.01 compared with vehicle (c, d). n=10-16 mice per group (c,d) […]

mouse neutrophils = experiment: H2O2 generation in mouse neutrophils in vitro; format: cell-based; details: antagonist 10 μM prior to WKYMVm (100 nM); FIG. 3d
Experimental: Because the bactericidal effect of phagocytes is related with H2O2 production (Hampton, M. B., et al., Blood. 92:3007-3017), the effect of WKYMVm on H2O2 generation in mouse neutrophils was evaluated. […] Mouse neutrophils were stimulated with vehicle (PBS) or WKYMVm (1-1000 nM) for 15 min. Neutrophils isolated from sham, CLP−, or CLP+WKYMVm-treated mice were stimulated with 100 nM PMA for 1 h. Freshly isolated neutrophils from normal mice were stimulated with various concentrations of WKYMVm for 10 min in the presence of cytochalasin B (5 μM).
To investigate the role of FPR1 and FPR2, neutrophils were preincubated with Boc-PLPLP (10 μM), WRW^4 (10 μM), or vehicle (DMSO) for 30 minutes prior to adding WKYMVm (100 nM) for 10 min. H2O2 in the supernatant was measured using an H2O2 assay kit (Molecular Probes).
Boc-PLPLP (10 μM), WRW^4 (10 μM), or Boc-PLPLP (10 μM)+WRW^4 (10 μM) was added […] prior to the addition of WKYMVm (100 nM).

[1] = system: splenocytes of Th1 mouse model; experiment: Splenocyte proliferation assay, Th1 mouse model (OVA+LPS); format: in vivo; details: OVA+LPS immunized mice; 72 h incubation with OVA; compared to sham-treated mice; FIG. 4e
Experimental: To generate the Th1 and Th2 mouse models (FIG. 4b), 6-week-old C57BL/6 WT mice were twice immunized intraperitoneally with 75 μg of OVA+10 μg of LPS or 2 mg of alum on days 0 and 7 and then challenged intraperitoneally with 50 μg of OVA on days 14, 15, and 16. Isolated splenocytes were subjected to a cell proliferation assay with and without OVA incubation. Briefly, splenocytes were harvested in RPMI 1640 media and incubated (2×10^5 cells/well) in 96-well flat-bottom plates at 37° C. for 96 h in medium alone or with 5, 50 or 500 μg OVA/ml. The example measured cellular thymidine incorporation following a 72 h culture period with 1 μCi [^3H]thymidine.
Because IL-2 promotes T-cell proliferation (Benczik, M., et al., Immunol. Invest. 33:109-142), the effect of FPR activation by WKYMVm on Th1 and Th2 cell proliferation was evaluated using inert antigens. WKYMVm (4 mg/kg) was injected subcutaneously four times into CLP mice 2, 14, 26, and 38 h post-CLP. Separate groups of animals were given sham, CLP+PBS, or CLP+WKYMVm treatment. Data are expressed as the mean±standard error (n=8). *P<0.05; **P<0.01 compared with CLP+PBS. […]
Protocol for the Th1 and Th2 mice (FIG. 4d) was described below. […] Data are expressed as the mean±standard error (n=5 for e, f), and * indicates P<0.05 compared to OVA+PBS group; ** indicates P<0.05 versus the other groups. […]

[2] = system: E. coli ingested by mouse neutrophils; experiment: Neutrophil bactericidal activity in vitro; format: cell-based; details: antagonist 10 μM added 30 min prior to WKYMVm (100 nM); FIG. 3b
Experimental: To determine whether WKYMVm treatment increases bactericidal activity in vitro, mouse neutrophils were allowed to ingest E. coli for 1 h and were then stimulated with 0.1-1000 nM WKYMVm for 20 min. […] Adherent neutrophils were incubated with 10^6 opsonized E. coli for 1 h, and stimulated with vehicle (PBS) or WKYMVm (0.1, 1, 10, 100, and 1000 nM) for 1 h.
Because FPR1 and FPR2 are expressed in neutrophils (data not shown), this experiment investigated the roles of FPR1-1 and FPR2-mediated pathways in WKYMVm-induced bactericidal activity. […] Mouse neutrophils were isolated from peripheral blood using a Histopaque-1077 solution (Sigma) as described previously (Bae, Y. S., et al., J. Immunol. 171:6807-6813, 2003). Boc-PLPLP (10 μM), WRW^4 (10 μM), or Boc-PLPLP (10 μM)+WRW^4 (10 μM) was added 30 min prior to the addition of WKYMVm (100 nM). The number of viable bacteria in the neutrophils was then determined.
Neutrophil bactericidal activity was measured according to the method of Yan, J. J., et al., Nat. Med. 10:161-167, 2004. […] After washing away the unengulfed E. coli, the number of viable bacteria in the neutrophils was determined before and after incubation with several concentrations of WKYMVm or vehicle for 1 h. The percentage of bacteria killed was calculated as 100×(1−number of CFU after WKYMVm stimulation/number of CFU before WKYMVm stimulation). […]

Substance: LESIFRSLLFRVM (MMK-1 peptide) [FPR-family agonist]
- therapeutic effect of FPR ligands and scrambled peptide (CLP mice): lower than that of WKYMVm

Substance: N-formyl-Met-Leu-Phe (For-Met-Leu-Phe) [fMLF, FPR-family agonist]
- therapeutic effect of FPR ligands and scrambled peptide (CLP mice): lower than that of WKYMVm

Substance: N-t-butoxycarbonyl-Phe-Leu-Phe-Leu-Phe (Boc-FLFLF) [Boc-PLPLP, FPR1 antagonist]
- reversal of WKYMVm-induced H2O2 generation by antagonist pre-treatment (mouse neutrophils): partly reversed
- reversal of the therapeutic effects of WKYMVm by antagonist pre-treatment (CLP mice): only partly reversed
- splenocyte proliferation, Th1 mouse model [1]: inhibited
- WKYMVm-induced bactericidal activity after antagonist pre-treatment [2]: significantly inhibited bactericidal activity

Substance: Val-Trp-Met-Tyr-D-Met-Lys (VWMY[dM]K) [VWMYmK]
- therapeutic effect of FPR ligands and scrambled peptide (CLP mice): no therapeutic effect

Substance: WHYMVm: analog of WKYMVm (WHYMV[dM])
- therapeutic effect of WKYMVm analogs on experimental sepsis (CLP mice): no therapeutic effects

Substance: WKEMVm: analog of WKYMVm (WKEMV[dM])
- therapeutic effect of WKYMVm analogs on experimental sepsis (CLP mice): no therapeutic effects

Substance: WKFMVm: analog of WKYMVm (WKFMV[dM])
- therapeutic effect of WKYMVm analogs on experimental sepsis (CLP mice): no therapeutic effects

Substance: WKRMVm: analog of WKYMVm (WKRMV[dM])
- therapeutic effect of WKYMVm analogs on experimental sepsis (CLP mice): no therapeutic effects

Substance: WKWMVm: analog of WKYMVm (WKWMV[dM])
- therapeutic effect of WKYMVm analogs on experimental sepsis (CLP mice): no therapeutic effects

Substance: WKYMFm: analog of WKYMVm (WKYMF[dM])
- therapeutic effect of WKYMVm analogs on experimental sepsis (CLP mice): no therapeutic effects

Substance: WKYMVV: analog of WKYMVm (WKYMVV)
- therapeutic effect of WKYMVm analogs on experimental sepsis (CLP mice): no therapeutic effects

Substance: WKYMWm: analog of WKYMVm (WKYMW[dM])
- therapeutic effect of WKYMVm analogs on experimental sepsis (CLP mice): no therapeutic effects

Substance: WKYMYm: analog of WKYMVm (WKYMY[dM])
- therapeutic effect of WKYMVm analogs on experimental sepsis (CLP mice): no therapeutic effects

Substance: WRWWWW [WRW^4]
- reversal of WKYMVm-induced H2O2 generation by antagonist pre-treatment (mouse neutrophils): partly reversed
- reversal of the therapeutic effects of WKYMVm by antagonist pre-treatment (CLP mice): completely reversed
- splenocyte proliferation, Th1 mouse model [1]: inhibited
- WKYMVm-induced bactericidal activity after antagonist pre-treatment [2]: significantly inhibited bactericidal activity

Substance: WRYMVm: analog of WKYMVm (WRYMV[dM])
- therapeutic effect of WKYMVm analogs on experimental sepsis (CLP mice): no therapeutic effects
